Test: Bidirectional permeability assay (Caco-2 cells)
Assay type: in vitro ADME
Conditions: human, 10 μM in FaSSIF buffer, 120 minutes at 37° C.; for Papp A→B at 120 min, 10 µM: absorptive direction (A2B); for Papp B→A at 120 min, 10 µM: secretory direction (B2A)
Experimental: Bidirectional Permeability Assay (Caco-2 Cells)
Caco-2 cells (Evotec) were seeded at a density of 70,000 cells/well in Millicell© 24-well cell culture insert plates and maintained in an incubator (37° C., 5% CO2, 95% RH) for 21 days with media change on alternate days.
Stock solutions (10 mM) of the test compounds, atenolol (low permeability marker), propranolol (high permeability marker) and digoxin (substrate for P-gp transport pathway) were prepared in dimethylsulfoxide (DMSO). An intermediate stock solution (1 mM) was prepared by diluting 10 μL of 10 mM master stock solution with 90 μL of neat DMSO. A working stock solution (10 μM) was prepared by diluting 50 μL of 1 mM with 4950 μL of FaSSIF buffer. Post addition of compounds to the FaSSIF, samples were subjected to sonication for 2 hours, and centrifuged at 4000 RPM for 30 minutes at 37° C. The 4 mL of resultant supernatant was directly used in the assay. The final DMSO concentration in the transport experiments was 1%.
On the day of assay, Caco-2 monolayers were washed twice with transport buffer (HBSS, pH 7.4) and pre-incubated for 30 min (37° C., 5% CO2, 95% RH) in an incubator. The electrical resistance of the monolayers was measured with a Millicell®-ERS system. Monolayers with trans-epithelial electrical resistance (TEER) values greater than 350 ohm·cm^2 were selected for the assay.
The assay was conducted in absorptive direction (A2B) and secretory (B2A) directions. Transport experiments were initiated by addition of transport assay buffer (FaSSIF buffer prepared in HBSS) consisting of compounds to the donor compartment (apical chamber A-B; basolateral chamber B-A) in duplicate (n=2) wells. Drug free HBSS buffer (pH 7.4) containing 1% bovine serum albumin (BSA) was introduced to the receiver (A-B-basolateral; B-A-Apical) compartments. The volumes of apical and basolateral compartments were 0.4 and 0.8 mL, respectively. After adding dosing solution, plates were incubated in an incubator for 120 minutes at 37° C. After 120 minutes, donor and receiver samples were collected and matrix matched (1:1, 30 μL study sample+30 μL blank buffer) with the opposite buffer. Dosing samples matrix matched (1:1, 30 μL study sample+30 μL blank buffer) with the opposite buffer. Samples were processed by adding acetonitrile containing internal standard (60 μL study sample+200 μL acetonitrile containing internal standard—Tolbutamide, 500 ng/mL). Samples were vortexed and centrifuged at 4000 rpm for 10 minutes. The obtained supernatant (100 μL) was diluted with 100 μL of water and transferred to fresh 96 well plates. The concentration of compounds in the samples was analyzed by liquid chromatography tandem mass spectrometry (LC-MS/MS) method using discovery grade bio-analytical method, as applicable.
The mean apparent permeability (Papp,×10^−6 cm/sec) of the test compounds, atenolol, propranolol and digoxin were calculated as follows:
where dq/dt=rate of transport (rate of transport of compound in the receiver compartment), C0=initial concentration in the donor compartment, A=surface area of the effective filter membrane.

Papp A→B at 120 min, 10 µM | Papp B→A at 120 min, 10 µM | Structure (SMILES)
7.5 ×10⁻⁶ cm/s | 9.3 ×10⁻⁶ cm/s | CCCCC1(CC)CN(c2ccccc2)c2cc(SC)c(CSCC(=O)O)cc2S(=O)(=O)C1 (single isomer, unassigned) [2, enantiomer 1]
24.3 ×10⁻⁶ cm/s | 21.3 ×10⁻⁶ cm/s | CCCCC1(CC)CN(c2ccc(F)cc2)c2cc(SC)c(CSCC(=O)O)cc2S(=O)(=O)C1 (single isomer, unassigned) [7, enantiomer 1]
29.3 ×10⁻⁶ cm/s | 25.3 ×10⁻⁶ cm/s | CCCCC1(C)CN(c2ccccc2)c2cc(SC)c(CSCC(=O)O)cc2S(=O)(=O)C1 (single isomer, unassigned) [5, enantiomer 1]

Source: patent publication US20240067617A1 (Albireo AB, priority 2022, published 2024)
